Paper PMC9288506, “Compounds activating VCP D1 ATPase enhance both autophagic and proteasomal neurotoxic protein clearance” (Nature Communications, 2022)

What was measured:
Test in all cases: biochemical
Design in all cases: Thermo Fisher in vitro kinase panel, per cent inhibition of kinase activity at 10 uM
DDR2 = DDR2 (Homo sapiens, UniProt Q16832)
Procedure: (§1) Kinase profiling of SMER28 and analogs SMER28 and analogs were tested at 10 µM in a panel of 123 kinases at ThermoFisher Scientific. Follow-up of selected kinases for SMER28 and analogs was also performed at ThermoFisher Scientific. Data are shown in Supplementary Data 2 and 3. […] An inhibition of PIK3C could induce autophagy, mediated by signaling through the AKT/mTOR axis[45].

ABL2 (Arg) = ABL2 (Arg) (Homo sapiens, UniProt P42684)
Procedure: as §1

EPHB1 = EPHB1 (Homo sapiens, UniProt P54762)
Procedure: as §1

GSK3A (GSK3 alpha) = GSK3A (GSK3 alpha) (Homo sapiens, UniProt P49840)
Procedure: as §1

PLK1 = PLK1 (Homo sapiens, UniProt P53350)
Procedure: as §1

ROCK2 = ROCK2 (Homo sapiens, UniProt O75116)
ROCK2, sequence (O75116 whole entry): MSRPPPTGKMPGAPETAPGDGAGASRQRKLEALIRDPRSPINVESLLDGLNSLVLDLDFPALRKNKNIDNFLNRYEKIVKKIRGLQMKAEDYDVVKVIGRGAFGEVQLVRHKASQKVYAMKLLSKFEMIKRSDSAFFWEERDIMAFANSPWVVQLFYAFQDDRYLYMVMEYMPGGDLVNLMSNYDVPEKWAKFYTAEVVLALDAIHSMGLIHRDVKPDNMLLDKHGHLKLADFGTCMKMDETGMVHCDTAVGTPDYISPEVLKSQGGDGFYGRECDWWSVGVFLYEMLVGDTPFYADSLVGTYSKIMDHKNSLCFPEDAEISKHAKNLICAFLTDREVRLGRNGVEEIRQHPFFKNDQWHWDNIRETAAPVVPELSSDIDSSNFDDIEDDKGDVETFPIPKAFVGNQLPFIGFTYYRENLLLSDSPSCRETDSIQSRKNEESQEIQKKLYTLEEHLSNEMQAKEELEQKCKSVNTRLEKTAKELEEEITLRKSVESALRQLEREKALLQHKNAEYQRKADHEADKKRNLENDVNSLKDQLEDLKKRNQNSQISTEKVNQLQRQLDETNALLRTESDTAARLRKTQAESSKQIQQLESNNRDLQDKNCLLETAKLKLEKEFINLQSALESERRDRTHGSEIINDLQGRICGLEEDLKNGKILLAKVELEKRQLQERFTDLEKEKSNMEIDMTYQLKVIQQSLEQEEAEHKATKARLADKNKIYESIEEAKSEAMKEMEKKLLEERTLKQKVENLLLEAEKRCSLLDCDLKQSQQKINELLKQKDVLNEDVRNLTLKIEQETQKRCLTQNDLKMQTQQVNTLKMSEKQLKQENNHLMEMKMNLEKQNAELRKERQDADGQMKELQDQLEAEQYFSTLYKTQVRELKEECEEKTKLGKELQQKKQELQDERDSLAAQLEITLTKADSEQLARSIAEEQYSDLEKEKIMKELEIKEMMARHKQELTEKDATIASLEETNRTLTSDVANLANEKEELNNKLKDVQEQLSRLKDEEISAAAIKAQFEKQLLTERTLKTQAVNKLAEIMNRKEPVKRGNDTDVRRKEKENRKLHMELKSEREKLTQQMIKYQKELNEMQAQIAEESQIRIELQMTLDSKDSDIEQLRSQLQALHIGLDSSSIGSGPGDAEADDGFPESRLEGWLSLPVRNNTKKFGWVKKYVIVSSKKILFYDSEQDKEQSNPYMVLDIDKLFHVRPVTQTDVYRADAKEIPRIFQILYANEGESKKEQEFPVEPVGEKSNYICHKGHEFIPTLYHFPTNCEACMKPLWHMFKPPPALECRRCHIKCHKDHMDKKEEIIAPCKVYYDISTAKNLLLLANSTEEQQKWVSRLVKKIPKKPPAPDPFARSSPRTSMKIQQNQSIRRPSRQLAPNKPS
Procedure: as §1

AURKB (Aurora B) = AURKB (Aurora B) (Homo sapiens, UniProt Q96GD4)
Procedure: as §1

MST1R (RON) = MST1R (RON) (Homo sapiens, UniProt Q04912)
Procedure: as §1

SRC = SRC (Homo sapiens, UniProt P12931)
SRC, sequence (P12931 whole entry): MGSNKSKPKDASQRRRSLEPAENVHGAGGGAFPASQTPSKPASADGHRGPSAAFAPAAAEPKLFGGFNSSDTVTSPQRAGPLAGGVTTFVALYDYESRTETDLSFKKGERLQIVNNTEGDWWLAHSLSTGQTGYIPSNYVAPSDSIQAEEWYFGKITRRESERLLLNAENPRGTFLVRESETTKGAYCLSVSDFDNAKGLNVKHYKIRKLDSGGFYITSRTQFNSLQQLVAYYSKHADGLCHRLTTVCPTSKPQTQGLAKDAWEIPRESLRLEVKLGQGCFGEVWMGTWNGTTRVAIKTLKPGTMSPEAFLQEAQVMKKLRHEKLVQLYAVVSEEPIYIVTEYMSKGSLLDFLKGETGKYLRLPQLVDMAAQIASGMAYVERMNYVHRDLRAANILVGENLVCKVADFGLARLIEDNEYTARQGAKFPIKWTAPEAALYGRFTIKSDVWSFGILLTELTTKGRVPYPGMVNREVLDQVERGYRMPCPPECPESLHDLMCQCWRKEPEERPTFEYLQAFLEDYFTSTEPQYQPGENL
Procedure: as §1

FGFR2 = FGFR2 (Homo sapiens, UniProt P21802)
Procedure: as §1

AKT1 (PKB alpha) = AKT1 (PKB alpha) (Homo sapiens, UniProt P31749)
Procedure: as §1

RET = RET (Homo sapiens, UniProt P07949)
Procedure: as §1

FRAP1 (mTOR) = FRAP1 (mTOR) (Homo sapiens, UniProt P42345)
Procedure: as §1

CAMK1 (CaMK1) = CAMK1 (CaMK1) (Homo sapiens, UniProt Q14012)
Procedure: as §1

MAP3K9 (MLK1) = MAP3K9 (MLK1) (Homo sapiens, UniProt P80192)
Procedure: as §1

SGK (SGK1) = SGK (SGK1) (Homo sapiens, UniProt O00141)
Procedure: as §1

PIK3C3 (hVPS34) = PIK3C3 (hVPS34) (Homo sapiens, UniProt Q8NEB9)
Procedure: as §1

EGFR (ErbB1) = EGFR (ErbB1) (Homo sapiens, UniProt P00533)
Procedure: as §1

FGFR4 = FGFR4 (Homo sapiens, UniProt P22455)
FGFR4, sequence (P22455 whole entry): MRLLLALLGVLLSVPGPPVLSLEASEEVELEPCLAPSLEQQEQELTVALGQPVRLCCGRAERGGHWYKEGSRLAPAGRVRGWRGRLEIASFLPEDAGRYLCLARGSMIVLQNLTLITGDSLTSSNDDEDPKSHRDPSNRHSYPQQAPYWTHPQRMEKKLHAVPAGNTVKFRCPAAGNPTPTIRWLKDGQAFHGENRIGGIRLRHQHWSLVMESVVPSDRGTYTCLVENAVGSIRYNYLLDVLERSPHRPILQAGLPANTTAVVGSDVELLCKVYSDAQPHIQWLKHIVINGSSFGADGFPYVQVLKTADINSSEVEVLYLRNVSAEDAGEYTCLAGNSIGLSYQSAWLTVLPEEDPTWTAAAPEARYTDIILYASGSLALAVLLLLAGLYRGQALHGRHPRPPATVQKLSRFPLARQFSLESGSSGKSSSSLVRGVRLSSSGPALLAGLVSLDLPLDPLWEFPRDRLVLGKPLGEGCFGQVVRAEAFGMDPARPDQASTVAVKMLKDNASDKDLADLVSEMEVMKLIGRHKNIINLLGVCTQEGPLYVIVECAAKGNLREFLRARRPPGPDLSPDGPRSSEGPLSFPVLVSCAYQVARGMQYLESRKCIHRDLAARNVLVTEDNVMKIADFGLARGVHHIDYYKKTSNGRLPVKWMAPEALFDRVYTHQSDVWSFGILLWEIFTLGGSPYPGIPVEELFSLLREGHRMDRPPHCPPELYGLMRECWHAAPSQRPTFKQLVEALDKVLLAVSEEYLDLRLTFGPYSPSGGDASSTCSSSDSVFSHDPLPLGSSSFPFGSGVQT
Procedure: as §1

[1] = molecular target: MAP3K7/MAP3K7IP1 (TAK1-TAB1) (Homo sapiens, UniProt O43318)
Procedure: as §1

NEK2 = NEK2 (Homo sapiens, UniProt P51955)
Procedure: as §1

CAMK2B (CaMKII beta) = CAMK2B (CaMKII beta) (Homo sapiens, UniProt Q13554)
Procedure: as §1

PDGFRB (PDGFR beta) = PDGFRB (PDGFR beta) (Homo sapiens, UniProt P09619)
PDGFRB (PDGFR beta), sequence (P09619 whole entry): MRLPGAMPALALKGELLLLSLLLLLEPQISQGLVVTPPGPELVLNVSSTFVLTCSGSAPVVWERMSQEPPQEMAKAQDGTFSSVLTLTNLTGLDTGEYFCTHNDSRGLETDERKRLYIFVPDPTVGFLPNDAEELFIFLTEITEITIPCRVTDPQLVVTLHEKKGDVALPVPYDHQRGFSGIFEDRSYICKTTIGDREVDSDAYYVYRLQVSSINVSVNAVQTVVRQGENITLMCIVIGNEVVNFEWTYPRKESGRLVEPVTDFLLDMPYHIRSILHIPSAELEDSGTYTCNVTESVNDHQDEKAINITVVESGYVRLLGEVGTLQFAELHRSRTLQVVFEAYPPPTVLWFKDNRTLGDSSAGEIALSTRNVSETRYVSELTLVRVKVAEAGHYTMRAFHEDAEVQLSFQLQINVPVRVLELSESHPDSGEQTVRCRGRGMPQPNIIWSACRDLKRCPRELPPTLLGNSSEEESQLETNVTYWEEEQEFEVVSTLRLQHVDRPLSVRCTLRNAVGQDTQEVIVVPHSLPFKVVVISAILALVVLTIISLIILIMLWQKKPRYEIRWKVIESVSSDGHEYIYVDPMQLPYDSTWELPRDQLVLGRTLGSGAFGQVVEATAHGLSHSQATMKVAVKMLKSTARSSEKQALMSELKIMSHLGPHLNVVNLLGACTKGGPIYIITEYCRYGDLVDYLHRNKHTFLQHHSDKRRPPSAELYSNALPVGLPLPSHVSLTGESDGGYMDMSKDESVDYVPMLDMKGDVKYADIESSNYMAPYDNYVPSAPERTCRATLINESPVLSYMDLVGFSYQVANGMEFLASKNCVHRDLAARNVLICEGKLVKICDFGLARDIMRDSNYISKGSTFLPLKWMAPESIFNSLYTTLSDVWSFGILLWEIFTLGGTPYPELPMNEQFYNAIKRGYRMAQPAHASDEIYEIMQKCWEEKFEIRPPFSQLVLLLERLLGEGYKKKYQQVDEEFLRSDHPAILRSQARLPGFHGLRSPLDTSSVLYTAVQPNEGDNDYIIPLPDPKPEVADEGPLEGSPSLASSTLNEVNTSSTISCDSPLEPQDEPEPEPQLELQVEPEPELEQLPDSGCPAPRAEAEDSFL
Procedure: as §1

EPHA5 = EPHA5 (Homo sapiens, UniProt P54756)
EPHA5, sequence (P54756 whole entry): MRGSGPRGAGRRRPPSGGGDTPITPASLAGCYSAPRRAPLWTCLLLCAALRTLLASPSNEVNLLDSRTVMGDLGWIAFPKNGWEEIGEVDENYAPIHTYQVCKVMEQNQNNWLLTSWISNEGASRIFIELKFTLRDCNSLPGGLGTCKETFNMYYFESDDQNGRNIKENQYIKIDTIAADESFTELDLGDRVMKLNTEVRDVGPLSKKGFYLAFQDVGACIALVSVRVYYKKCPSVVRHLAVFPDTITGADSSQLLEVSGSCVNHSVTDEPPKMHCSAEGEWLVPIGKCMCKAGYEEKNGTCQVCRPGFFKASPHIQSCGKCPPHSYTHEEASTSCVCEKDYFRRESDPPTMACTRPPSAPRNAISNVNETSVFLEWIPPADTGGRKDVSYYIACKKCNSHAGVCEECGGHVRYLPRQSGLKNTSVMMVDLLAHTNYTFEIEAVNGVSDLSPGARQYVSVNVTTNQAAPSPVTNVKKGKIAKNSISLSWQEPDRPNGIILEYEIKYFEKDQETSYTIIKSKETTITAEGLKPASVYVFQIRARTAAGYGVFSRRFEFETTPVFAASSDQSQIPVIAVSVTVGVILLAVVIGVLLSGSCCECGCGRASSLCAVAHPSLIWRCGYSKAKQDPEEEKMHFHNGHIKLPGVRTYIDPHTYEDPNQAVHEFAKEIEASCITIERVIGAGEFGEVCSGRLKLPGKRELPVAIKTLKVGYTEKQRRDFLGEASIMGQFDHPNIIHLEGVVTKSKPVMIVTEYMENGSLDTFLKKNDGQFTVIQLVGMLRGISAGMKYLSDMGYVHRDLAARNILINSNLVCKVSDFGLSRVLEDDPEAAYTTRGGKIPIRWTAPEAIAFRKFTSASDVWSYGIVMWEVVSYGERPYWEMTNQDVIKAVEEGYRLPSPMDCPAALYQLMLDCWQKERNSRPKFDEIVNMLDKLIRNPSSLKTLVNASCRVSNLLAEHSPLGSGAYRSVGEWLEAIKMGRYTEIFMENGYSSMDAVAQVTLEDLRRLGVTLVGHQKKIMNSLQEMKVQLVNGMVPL
Procedure: as §1

[2] = molecular target: PIK3CD/PIK3R1 (p110 delta/p85 alpha) (Homo sapiens, UniProt O00329)
Procedure: as §1

Compound: C=CCNc1ncnc2ccc(Br)cc12 [SMER28]
- inhibition at 10 µM (DDR2): 0%
- inhibition at 10 µM (ABL2 (Arg)): 3%
- inhibition at 10 µM (EPHB1): 6%
- inhibition at 10 µM (GSK3A (GSK3 alpha)): 23%
- inhibition at 10 µM (PLK1): 11%
- inhibition at 10 µM (ROCK2): -5%
- inhibition at 10 µM (AURKB (Aurora B)): 18%
- inhibition at 10 µM (MST1R (RON)): -4%
- inhibition at 10 µM (SRC): 2%
- inhibition at 10 µM (FGFR2): 19%
- inhibition at 10 µM (AKT1 (PKB alpha)): 3%
- inhibition at 10 µM (RET): 25%
- inhibition at 10 µM (FRAP1 (mTOR)): -7%
- inhibition at 10 µM (CAMK1 (CaMK1)): 13%
- inhibition at 10 µM (MAP3K9 (MLK1)): -2%
- inhibition at 10 µM (SGK (SGK1)): 15%
- inhibition at 10 µM (PIK3C3 (hVPS34)): 12%
- inhibition at 10 µM (EGFR (ErbB1)): 12%
- inhibition at 10 µM (FGFR4): 7%
- inhibition at 10 µM [1]: 34%
- inhibition at 10 µM (NEK2): -1%
- inhibition at 10 µM (CAMK2B (CaMKII beta)): 4%
- inhibition at 10 µM (PDGFRB (PDGFR beta)): 8%
- inhibition at 10 µM (EPHA5): 7%
- inhibition at 10 µM [2]: 78%
